Measured values as given in EPA's ToxValDB 9.5.
“And” between values parts separate entries of the source, which are not always exact repeats. Identical values can stand only once. One block for each compound: values may come before it.

Key:
Rattus norvegicus [1] = settings: for LD50 / NOAEL: oral, gavage; for NOAEL: reproduction developmental, duration: 8 weeks, Sprague-Dawley
Oryctolagus sp. = settings: acute, dermal
Rattus norvegicus [2] = settings: for LOEL / NOEL: Hershberger; for LEL: uterotrophic, Active
Rattus norvegicus [3] = settings: M/F
Rattus norvegicus [4] = test system: Rattus norvegicus
Rattus norvegicus [5] = settings: oral
Mus musculus = settings: subchronic, duration: 13 weeks, B6C3F1
[6] = duration: 10 days, oral, gavage, Sprague-Dawley, active + Negative + Antiandrogenic + anti-androgenic
[7] = developmental, oral, reduced pup weanling weight
[8] = duration: 10 days, oral, gavage, Sprague-Dawley, active + Antiandrogenic + anti-androgenic
[9] = duration: 5 days, oral, gavage, Sprague-Dawley, active + Antiandrogenic + decrease in AST wts
[10] = duration: 10 days, oral, gavage, Fischer 344, active + Antiandrogenic + anti-androgenic + decrease in AST wts
[11] = duration: 10 days, oral, gavage, Sprague-Dawley, Antiandrogenic + anti-androgenic + decrease in AST wts
[12] = duration: 10 days, oral, gavage, Wistar, active + Antiandrogenic + anti-androgenic + decrease in AST wts
[13] = subchronic, oral, gavage, epithelial hyperplasia of the forestomach
[14] = chronic, duration: 2 years, oral, diet, reduced body weight gain and food consumption
[15] = short-term, duration: 28 days, gavage, M, Sprague-Dawley, Body Weight Changes: decrease + Food Consumption: decrease + Relative Organ Weight: Thyroid increase
[16] = duration: 10 days, oral, gavage, Sprague-Dawley, active + Negative + Antiandrogenic + anti-androgenic + negative
[17] = chronic, duration: 2 years, oral, diet, reduced body weight (males), liver cell vacuolation, cholinesterase inhibition

SMILES: CCCCCN(CCCCC)C(=S)[S][Sb]([S]C(=S)N(CCCCC)CCCCC)[S]C(=S)N(CCCCC)CCCCC [Antimony diamyldithiocarbamate]
LD50 (Rattus norvegicus [1]; acute): 16400 mg/kg
LD50 (Oryctolagus sp.; occlusive): 16000 mg/kg

SMILES: CCCCNC(=O)n1c(NC(=O)OC)nc2ccccc21 [Benomyl]
LOEL (Rattus norvegicus [2]; [6]): 1000 mg/kg-day
NOEL (Rattus norvegicus [2]; [6]): 300 mg/kg-day
LEL (Rattus norvegicus [3]; [7]): 25 mg/kg-day
NOEL (Rattus norvegicus [3]; [7]): 5 mg/kg-day

SMILES: ClCCOCCCl [Bis(chloroethyl) ether]
LOAEL (Rattus norvegicus [4]; chronic, duration: 130 days, inhalation, M/F, body weight): 404 mg/m3
NOEL (Rattus norvegicus [5]; subchronic, gavage, Sprague-Dawley): 15 mg/kg-day

SMILES: CCC[CH2][Sn]([Cl])([Cl])[CH2]CCC [Dibutyltin dichloride]
LOAEL (Rattus norvegicus [4]; short-term, duration: 6 weeks, oral, diet, M/F, Wistar, immunological): 5 mg/kg-day

SMILES: CC(C)CCCCCCCOC(=O)c1ccccc1C(=O)OCCCCCCCC(C)C [Diisodecyl phthalate]
LOEL (Rattus norvegicus [2]; [8]): 500 mg/kg-day
NOEL (Rattus norvegicus [2]; [8]): 100 mg/kg-day

LEL (Rattus norvegicus [2]; duration: 3 days, oral): 0.01 mg/day
SMILES: C#C[C@]1(OC(=O)CC)C[C@@H]2CC[C@@H]3[C@H](CC[C@@]4(C)[C@H]3CC[C@]4(C#C)OC(=O)CC)[C@H]2C1 [Dinordrin II]

LEL (Rattus norvegicus [2]; duration: 3 days, oral): 0.000156 mg/day
SMILES: C#C[C@@]1(OC(=O)CC)C[C@@H]2CC[C@@H]3[C@H](CC[C@@]4(C)[C@H]3CC[C@]4(C#C)OC(=O)CC)[C@H]2C1 [Dinordrin I]

SMILES: CC(C)([CH2][Sn]([CH2]C(C)(C)c1ccccc1)([CH2]C(C)(C)c1ccccc1)[O][Sn]([CH2]C(C)(C)c1ccccc1)([CH2]C(C)(C)c1ccccc1)[CH2]C(C)(C)c1ccccc1)c1ccccc1 [Fenbutatin oxide]
LOEL (Rattus norvegicus [2]; duration: 10 days, oral, gavage, wistar, active + Negative + Antiandrogenic + anti-androgenic + decrease in age of partial PPS at 10 / decrease in PPS wt and age at 75 with …): 10 mg/kg-day

SMILES: COP(=S)(OC)Oc1ccc([N+](=O)[O-])c(C)c1 [Fenitrothion]
LOEL (Rattus norvegicus [2]; duration: 7 days, oral, gavage, Sprague-Dawley, active + Negative + Antiandrogenic + anti-androgenic): 15 mg/kg-day

SMILES: CC(C)C(=O)Nc1ccc([N+](=O)[O-])c(C(F)(F)F)c1 [Flutamide]
LOEL (Rattus norvegicus [2]; [9]): 2.5 mg/kg-day
NOEL (Rattus norvegicus [2]; [9]): 0.6 mg/kg-day
NOEL (Rattus norvegicus [2]; duration: 7 days, oral, gavage, Sprague-Dawley, active + Antiandrogenic + anti-androgenic + decrease in AST wts): 0.6 mg/kg-day
LOEL (Rattus norvegicus [2]; [10]): 2.5 mg/kg-day and 3.2 mg/kg-day
NOEL (Rattus norvegicus [2]; [10]): 0.6 mg/kg-day
LOEL (Rattus norvegicus [2]; [11]): 1 mg/kg-day
NOEL (Rattus norvegicus [2]; [11]): 0.6 mg/kg-day
NOEL (Rattus norvegicus [2]; duration: 10 days, oral, gavage, Sprague-Dawley, Neither + decrease in AST): 0.6 mg/kg-day
NOEL (Rattus norvegicus [2]; duration: 10 days, oral, gavage, Sprague-Dawley, active + Antiandrogenic + anti-androgenic + decrease in AST wts): 0.6 mg/kg-day
NOEL (Rattus norvegicus [2]; duration: 10 days, oral, gavage, Sprague-Dawley, active + Antiandrogenic + decrease in AST wts): 0.6 mg/kg-day
LOEL (Rattus norvegicus [2]; [12]): 2.5 mg/kg-day and 3 mg/kg-day and 3.2 mg/kg-day
NOEL (Rattus norvegicus [2]; [12]): 0.6 mg/kg-day

SMILES: Brc1ccccc1-c1c(Br)c(Br)c(Br)c(Br)c1Br [Hexabromobiphenyl]
NOAEL (Rattus norvegicus [4]; short-term, duration: 10 days, oral, gavage, M, Sprague-Dawley, endocrine): 1 mg/kg-day

SMILES: ClC(Cl)=C(Cl)C(Cl)=C(Cl)Cl [Hexachloro-1,3-butadiene]
LOAEL (Rattus norvegicus [4]; short-term, duration: 14 days, oral, diet, M/F, Wistar, renal): 5.9 mg/kg-day
NOAEL (Mus musculus; oral, diet, F, renal): 0.2 mg/kg-day

LEL (Rattus norvegicus [2]; duration: 3 days, oral): 200 mg/day
SMILES: CC(C)Oc1ccc2c(=O)c(-c3ccccc3)coc2c1 [Ipriflavone]
NOEL (Rattus norvegicus [5]; subchronic, duration: 35 days, gavage, Sprague-Dawley): > 3000 mg/kg-day

SMILES: CC(C)CCCCCCCOP(OCCCCCCCC(C)C)OCCCCCCCC(C)C [Isodecyl phosphite]
LC50 (Rattus norvegicus [1]; acute, Inhalation, Sherman Wistar): > 12.6 mg/L
LD50 (Rattus norvegicus [1]; acute, Sherman Wistar): > 5000 mg/kg
NOAEL (Rattus norvegicus [1]; generation: F0): ≥ 1000 mg/kg-day
NOAEL (Rattus norvegicus [1]; generation: F1): ≥ 1000 mg/kg-day
LD50 (Oryctolagus sp.; New Zealand): > 5000 mg/kg

SMILES: CBr [Methyl bromide]
LOAEL (Rattus norvegicus [4]; chronic, duration: 129 weeks, inhalation, M/F, Wistar, respiratory): 12 mg/m3
LOAEL (Mus musculus; inhalation, M/F, neurological): 38.8 mg/m3
LOAEL (Rattus norvegicus [3]; chronic, duration: 29 months, inhalation, degenerative and proliferative lesions of the olfactory epithelium of the nasal cavity): 11.7 mg/m3
LOAEL (Rattus norvegicus [3]; [13]): 7.1 mg/kg-day
NOAEL (Rattus norvegicus [3]; [13]): 1.4 mg/kg-day

SMILES: CCCCCCCCCC(=O)O[C@H]1CC[C@H]2[C@@H]3CCC4=CC(=O)CC[C@@H]4[C@H]3CC[C@]12C [Nandrolone decanoate]
LOEL (Rattus norvegicus [2]; duration: 10 days, injection, intramuscular, Wistar, active + Androgenic + androgenic): 1.5 mg/kg-day

SMILES: CCCCCCCC=O [Octanal]
LD50 (Oryctolagus sp.; occlusive, New Zealand): 5210 mg/kg

SMILES: CNC(=O)ON=C(SC)C(=O)N(C)C [Oxamyl]
NOEL (Rattus norvegicus [2]; duration: 10 days, oral, gavage, Sprague-Dawley, inactive + Negative + Negative + neither + negative): 0.5 mg/kg-day
LEL (Rattus norvegicus [3]; [14]): 5 mg/kg-day
NOEL (Rattus norvegicus [3]; [14]): 2.5 mg/kg-day

LEL (Rattus norvegicus [2]; duration: 2 days, injection, subcutaneous): 1 mg/day
SMILES: O=C1OC(c2ccc(O)cc2)(c2ccc(O)cc2)c2ccccc21 [Phenolphthalein]
NOAEL (Rattus norvegicus [5]; [15]): < 200 mg/kg-day
NOEL (Rattus norvegicus [5]; [15]): < 200 mg/kg-day
NOEL (Rattus norvegicus [5]; subchronic, duration: 13 weeks, diet, F, Fischer 344, Body Weight Changes: decrease + Absolute Organ Weight: Liver + Relative Organ Weight: Right kidney increase, Liver increase): 800 mg/kg-day
NOEL (Rattus norvegicus [5]; subchronic, duration: 13 weeks, diet, M/F, Fischer 344, Body Weight Changes: decrease + Absolute Organ Weight: Liver + Relative Organ Weight: Right kidney increase, Liver increase): 576 mg/kg-day

SMILES: COP(=S)(OC)SCN1C(=O)c2ccccc2C1=O [Phosmet]
LOEL (Rattus norvegicus [2]; [16]): 25 mg/kg-day
NOEL (Rattus norvegicus [2]; [16]): 20 mg/kg-day and 15 mg/kg-day
LEL (Rattus norvegicus [3]; [17]): 20 mg/kg-day
NOEL (Rattus norvegicus [3]; [17]): 2 mg/kg-day

SMILES: C[C@H]1CCC[C@H](O)CCCCCc2cc(O)cc(O)c2C(=O)O1 [Zearalanol]
LEL (Rattus norvegicus [2]; duration: 3 days, oral): 0.03 mg/day

SMILES: ClC1C(Cl)C(Cl)C(Cl)C(Cl)C1Cl (stereo not drawn) [alpha-1,2,3,4,5,6-Hexachlorocyclohexane]
NOAEL (Rattus norvegicus [4]; chronic, duration: 107 weeks, oral, diet, M/F, Wistar, hepatic): 0.9 mg/kg-day
NOAEL (Rattus norvegicus [4]; short-term, duration: 28 days, oral, gavage, M, Fischer 344, hepatic): 2 mg/kg-day
